The source of these data is patent US8163929B2, “Dihydropyridone amides as P2X7 modulators” (Roche Palo Alto LLC, priority 2008, dated 2012).

The target in the test is T1, P2X7 (UniProt Q99572).
T1 sequence (Q99572 1-595): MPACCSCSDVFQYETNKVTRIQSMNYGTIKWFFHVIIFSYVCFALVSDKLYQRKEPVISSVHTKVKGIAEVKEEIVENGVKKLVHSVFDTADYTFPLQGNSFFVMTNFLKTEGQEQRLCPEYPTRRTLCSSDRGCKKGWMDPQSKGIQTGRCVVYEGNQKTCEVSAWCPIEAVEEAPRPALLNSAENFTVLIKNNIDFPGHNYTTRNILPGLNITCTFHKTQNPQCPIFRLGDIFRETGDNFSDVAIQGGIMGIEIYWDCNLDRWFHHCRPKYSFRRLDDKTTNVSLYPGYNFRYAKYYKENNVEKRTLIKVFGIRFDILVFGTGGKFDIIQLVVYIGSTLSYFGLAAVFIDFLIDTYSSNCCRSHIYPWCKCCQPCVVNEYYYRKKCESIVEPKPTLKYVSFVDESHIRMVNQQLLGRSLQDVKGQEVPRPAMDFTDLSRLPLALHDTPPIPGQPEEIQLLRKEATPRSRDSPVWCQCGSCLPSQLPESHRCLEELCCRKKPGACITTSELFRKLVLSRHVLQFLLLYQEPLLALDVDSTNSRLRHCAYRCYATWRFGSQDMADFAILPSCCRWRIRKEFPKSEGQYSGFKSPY
The test is described as follows: P2X7 activity of Table 1. The test is classed as cell-based. The following applies: pIC50 values for P2X7. The essentials: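 FLIPR calcium flux with fluo-3 in 1321N1 cells expressing human P2X7 and HEK293 cells expressing rat P2X7, in HBSS with 2 mM CaCl2 and 2.5 mM probenecid. Antagonist pre-incubated 20 min at room temperature, then BzATP added (100 μM human, 5 μM rat). Peak response over 5 min normalised to 5 μM ionomycin.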

On to `Cc1cc(-c2cccc(NC(=O)C3=CNC(=O)C[C@H]3c3ccc(F)cc3)c2)n(C)n1` [Compound 20, (S)-4-(4-Fluoro-phenyl)-6-oxo-1,4,5,6-tetrahydro-pyridine-3-carboxylic acid [3-(2,5-dimethyl-2H-pyrazol-3-yl)-phenyl]-amide], for which the pIC50 – broadly, −log10 of the IC50, conventionally taken in molar units – was 5.31.
`Cc1nc(-c2ccc(C)c(NC(=O)C3=CNC(=O)C[C@H]3c3ccc(F)cc3)c2)cs1` [Compound 58, (S)-4-(4-Fluoro-phenyl)-6-oxo-1,4,5,6-tetrahydro-pyridine-3-carboxylic acid [2-methyl-5-(2-methyl-thiazol-4-yl)-phenyl]-amide] returned a pIC50 of 7.87.
With `Cc1cc(Cl)c(-n2ncccc2=O)cc1NC(=O)C1=CNC(=O)C[C@H]1c1ccc(F)cc1` [Compound 125, (S)-4-(4-Fluoro-phenyl)-6-oxo-1,4,5,6-tetrahydro-pyridine-3-carboxylic acid [4-chloro-2-methyl-5-(6-oxo-6H-pyridazin-1-yl)-phenyl]-amide] the figure was 7.606; with `Cc1ccc(-c2cc(C)n(C[C@H](O)CO)n2)cc1NC(=O)C1=CN(C)C(=O)C[C@H]1c1ccc(F)cc1` [Compound 61, (S)-4-(4-Fluoro-phenyl)-1-methyl-6-oxo-1,4,5,6-tetrahydro-pyridine-3-carboxylic acid {5-[1-((S)-2,3-dihydroxy-propyl)-5-methyl-1H-pyrazol-3-yl]-2-methyl-phenyl}-amide], 7.255; with `Cc1ccc(-c2cc(C)n(CCO)n2)cc1NC(=O)C1=CNC(=O)C[C@H]1c1cccc(F)c1` [Compound 69, (S)-4-(3-Fluoro-phenyl)-6-oxo-1,4,5,6-tetrahydro-pyridine-3-carboxylic acid {5-[1-(2-hydroxy-ethyl)-5-methyl-1H-pyrazol-3-yl]-2-methyl-phenyl}-amide], 7.92.
The compound `Cc1ccc(-c2cc(C)n(CCO)n2)cc1NC(=O)C1=CN(C)C(=O)C[C@H]1c1ccc(F)cc1` [Compound 38, (S)-4-(4-Fluoro-phenyl)-1-methyl-6-oxo-1,4,5,6-tetrahydro-pyridine-3-carboxylic acid {5-[1-(2-hydroxy-ethyl)-5-methyl-1H-pyrazol-3-yl]-2-methyl-phenyl}-amide] came in with a pIC50 of 7.46.
As to `Cc1ccc(N2CCOCC2)cc1NC(=O)C1=CNC(=O)C[C@H]1c1ccc(F)cc1` [Compound 47, (S)-4-(4-Fluoro-phenyl)-6-oxo-1,4,5,6-tetrahydro-pyridine-3-carboxylic acid (2-methyl-5-morpholin-4-yl-phenyl)-amide], the pIC50 came out at 6.3.
With `Cc1nnc(-c2ccc(C)c(NC(=O)C3=CNC(=O)C[C@H]3c3ccc(F)cc3)c2)o1` [Compound 30, (S)-4-(4-Fluoro-phenyl)-6-oxo-1,4,5,6-tetrahydro-pyridine-3-carboxylic acid [2-methyl-5-(5-methyl-[1,3,4]oxadiazol-2-yl)-phenyl]-amide] the figure was 6.275; with `Cc1ccc(-n2cccc2)cc1NC(=O)C1=CNC(=O)CC1c1cccc(F)c1` (stereo not shown) [Compound 1, 4-(3-Fluoro-phenyl)-6-oxo-1,4,5,6-tetrahydro-pyridine-3-carboxylic acid (2-methyl-5-pyrrol-1-yl-phenyl)-amide], 6.985.
In turn, `Cc1ccc(=O)n(-c2ccc(C)c(NC(=O)C3=CNC(=O)C[C@H]3c3ccc(F)cc3)c2)n1` [Compound 78, (S)-4-(4-Fluoro-phenyl)-6-oxo-1,4,5,6-tetrahydro-pyridine-3-carboxylic acid [2-methyl-5-(3-methyl-6-oxo-6H-pyridazin-1-yl)-phenyl]-amide] gave a pIC50 of 7.31.
`Cc1ccc(-c2cc[nH]n2)cc1NC(=O)C1=CNC(=O)C[C@H]1c1ccc(F)cc1` [Compound 5, (S)-4-(4-Fluoro-phenyl)-6-oxo-1,4,5,6-tetrahydro-pyridine-3-carboxylic acid [2-methyl-5-(1H-pyrazol-3-yl)-phenyl]-amide]: the pIC50 is 7.745.
Take `Cc1cc(-c2ccc(C)c(NC(=O)C3=CNC(=O)C[C@H]3c3ccc(F)cc3)c2)ccn1` [Compound 54, (S)-4-(4-Fluoro-phenyl)-6-oxo-1,4,5,6-tetrahydro-pyridine-3-carboxylic acid [2-methyl-5-(2-methyl-pyridin-4-yl)-phenyl]-amide]: the pIC50 is on record as 7.045.
Compound `Cc1ccc(-c2ccc(C)c(NC(=O)C3=CNC(=O)C[C@H]3c3ccc(F)cc3)c2)cn1` [Compound 10, (S)-4-(4-Fluoro-phenyl)-6-oxo-1,4,5,6-tetrahydro-pyridine-3-carboxylic acid [2-methyl-5-(6-methyl-pyridin-3-yl)-phenyl]-amide] displayed a pIC50 of 6.653.
The figure for `Cc1ccc(-n2ncccc2=O)cc1NC(=O)C1=CNC(=O)C[C@H]1c1cccc(F)c1` [Compound 89, (S)-4-(3-Fluoro-phenyl)-6-oxo-1,4,5,6-tetrahydro-pyridine-3-carboxylic acid [2-methyl-5-(6-oxo-6H-pyridazin-1-yl)-phenyl]-amide] is 7.53; for `Cc1ccc(-c2ccn(C)n2)cc1NC(=O)C1=CNC(=O)C[C@H]1c1ccc(F)cc1` [Compound 65, (S)-4-(4-Fluoro-phenyl)-6-oxo-1,4,5,6-tetrahydro-pyridine-3-carboxylic acid [2-methyl-5-(1-methyl-1H-pyrazol-3-yl)-phenyl]-amide] it is 7.705.
`CCOC(=O)Cn1nc(-c2ccc(C)c(NC(=O)C3=CNC(=O)C[C@H]3c3ccc(F)cc3)c2)cc1C` [Compound 50, [3-(3-{[(S)-4-(4-Fluoro-phenyl)-6-oxo-1,4,5,6-tetrahydro-pyridine-3-carbonyl]-amino}-4-methyl-phenyl)-5-methyl-pyrazol-1-yl]-acetic acid ethyl ester] registered a pIC50 of 7.145.
The compound `COc1ccc(-c2ccc(C)c(NC(=O)C3=CN(C)C(=O)C[C@H]3c3ccc(F)cc3)c2)nn1` [Compound 117, (S)-4-(4-Fluoro-phenyl)-1-methyl-6-oxo-1,4,5,6-tetrahydro-pyridine-3-carboxylic acid [5-(6-methoxy-pyridazin-3-yl)-2-methyl-phenyl]-amide] came in with a pIC50 of 7.22.
For `COC[C@@H](O)Cn1nc(-c2ccc(C)c(NC(=O)C3=CN(C)C(=O)C[C@H]3c3cccc(F)c3)c2)cc1C` [Compound 103, (S)-4-(3-Fluoro-phenyl)-1-methyl-6-oxo-1,4,5,6-tetrahydro-pyridine-3-carboxylic acid {5-[1-((S)-2-hydroxy-3-methoxy-propyl)-5-methyl-1H-pyrazol-3-yl]-2-methyl-phenyl}-amide], the negative logarithm of the IC50 (pIC50) was 7.1.
The compound `Cc1ccc(=O)n(-c2ccc(C)c(NC(=O)C3=CNC(=O)C[C@H]3c3ccc(F)cc3)c2)c1` [Compound 122, (S)-4-(4-Fluoro-phenyl)-6-oxo-1,4,5,6-tetrahydro-pyridine-3-carboxylic acid [2-methyl-5-(5-methyl-2-oxo-2H-pyridin-1-yl)-phenyl]-amide] displayed a pIC50 of 8.26.
Regarding `Cc1ccc(-c2ccn[nH]c2=O)cc1NC(=O)C1=CNC(=O)C[C@H]1c1ccc(F)cc1` [Compound 56, (S)-4-(4-Fluoro-phenyl)-6-oxo-1,4,5,6-tetrahydro-pyridine-3-carboxylic acid [2-methyl-5-(3-oxo-2,3-dihydro-pyridazin-4-yl)-phenyl]-amide], the pIC50 is listed as 8.256.
In the case of `Cc1ccc(-c2cc(C)n(CCO)n2)cc1NC(=O)C1=CNC(=O)CC1c1cc(F)cc(F)c1` (stereo not shown) [Compound 95, 4-(3,5-Difluoro-phenyl)-6-oxo-1,4,5,6-tetrahydro-pyridine-3-carboxylic acid {5-[1-(2-hydroxy-ethyl)-5-methyl-1H-pyrazol-3-yl]-2-methyl-phenyl}-amide], the pIC50 stood at 7.85.
Take `Cc1cc(-c2ccc(Cl)c(NC(=O)C3=CN(C)C(=O)C[C@H]3c3ccc(F)cc3)c2)nn1CCO` [Compound 115, (S)-4-(4-Fluoro-phenyl)-1-methyl-6-oxo-1,4,5,6-tetrahydro-pyridine-3-carboxylic acid {2-chloro-5-[1-(2-hydroxy-ethyl)-5-methyl-1H-pyrazol-3-yl]-phenyl}-amide]: the pIC50 is on record as 7.04.
With `Cc1ccc(-n2ncc(=O)[nH]c2=O)cc1NC(=O)C1=CNC(=O)C[C@H]1c1ccc(F)cc1` [Compound 16, (S)-4-(4-Fluoro-phenyl)-6-oxo-1,4,5,6-tetrahydro-pyridine-3-carboxylic acid [5-(3,5-dioxo-4,5-dihydro-3H-[1,2,4]triazin-2-yl)-2-methyl-phenyl]-amide] the figure was 7.23.
With `Cc1ccc(-c2ccnn2C)cc1NC(=O)C1=CNC(=O)C[C@H]1c1ccc(F)cc1` [Compound 13, (S)-4-(4-Fluoro-phenyl)-6-oxo-1,4,5,6-tetrahydro-pyridine-3-carboxylic acid [2-methyl-5-(2-methyl-2H-pyrazol-3-yl)-phenyl]-amide] the figure was 7.033; with `CN1C=C(C(=O)Nc2cc(-c3ccnn(C)c3=O)ccc2F)[C@H](c2ccc(F)cc2)CC1=O` [Compound 141, (S)-4-(4-Fluoro-phenyl)-1-methyl-6-oxo-1,4,5,6-tetrahydro-pyridine-3-carboxylic acid [2-fluoro-5-(2-methyl-3-oxo-2,3-dihydro-pyridazin-4-yl)-phenyl]-amide], 7.36.
